These are literature values, as cited in patent publication US12648566B2, “Solid bio-pesticidal composition comprising of elemental sulphur and azadirachtin” (SML LIMITED, priority 2021, dated 2026).

For the data set the following is noted: buffer, pH 4.

For the compound `C/C=C(\C)C(=O)O[C@H]1C[C@@H](OC(C)=O)[C@@]2(C(=O)OC)CO[C@H]3[C@@H](O)[C@@](C)([C@]45O[C@@]4(C)[C@H]4C[C@@H]5O[C@@H]5OC=C[C@@]54O)[C@H]4[C@]1(CO[C@]4(O)C(=O)OC)[C@@H]32` [Azadirachtin], the laboratory half-life is 50 to 100 days.
